Assay results: PMC11595589, “A Pharmacokinetic and Bioavailability Study of Ecklonia cava Phlorotannins Following Intravenous and Oral Administration in Sprague–Dawley Rats” (Marine Drugs, 2024)
“Also recorded” adds a separate entry of the source. Read-outs that look alike come from different tables or passages of the source.

Experiment: Single-dose pharmacokinetics and bioavailability after oral gavage administration of EK-ECP
Type: in vivo, male Sprague–Dawley rats
Conditions: for Cmax / Tmax / half-life / AUC(0-t) / bioavailability / AUC(0-inf) / MRT last / Vd/F: male, Sprague-Dawley, rat; for Tmax / Tlast: median (minimum-maximum); for fold increase in AUCTlast for a 1:10-fold increase in dose / fold increase in Cmax for a 1:10-fold increase in dose: PO 100 to 1000 mg/kg EK-ECP; for half-life / AUC(0-t): po; for bioavailability: 100 and 1000 mg/kg oral dose of EK-ECP versus IV 10 mg/kg, dose-corrected, read-out: Bioavailability following oral gavage administration; for Vd/F: read-out: Vz/F
Description: EK-ECP was administered to male Sprague–Dawley rats by either IV bolus (Group 1, 10 mg/kg) or oral gavage (Groups 2, 3 or 4, at 10, 100 or 1000 mg/kg, respectively) administration. Blood collection intervals were pre dose (0), and 0.25, 0.5, 1, 2, 4, 6, 8, 12, 24 and 36 h post dose. Plasma samples were analyzed for concentrations of 8,8′-bieckol, dieckol, and PFF-A; all pre-dose sample results were less than the lower limit of quantitation (LLOQ < 1 ng/mL). The time profiles of the plasma concentrations of 8,8′-bieckol, dieckol, and PFF-A in individual animals are illustrated in Figure 4. The mean pharmacokinetic parameters and corresponding coefficient of variation (CV) following IV administration of 10 mg/kg EK-ECP to male rats are illustrated in Table 1. Those following oral administrations of 10, 100 and 1000 mg/kg EK-ECP to male rats are illustrated in Table 2.
Total of 20 male CD® [Crl:CD®(SD)] rats (approximately 11.5 weeks of age) obtained from Charles River Laboratories (Portage, MI, USA) were used in our study. These included five rats with both jugular and femoral vein cannulations, and 15 rats with jugular vein cannulations. Of the 20 animals received, 16 male rats were placed in the study, comprising four rats with both jugular and femoral vein cannulations, and 12 rats with jugular vein cannulations. The rats were housed in the Mattawan facility of MPI Research Inc (currently Charles River Laboratories, Mattawan, MI, USA). Animal welfare for this study was in compliance with the U.S. Department of Agriculture’s (USDA) Animal Welfare Act (9 CFR Parts 1, 2 and 3). This facility maintained an animal welfare assurance statement with the National Institutes of Health Office of Laboratory Animal Welfare. All procedures were approved before the study by the institutional animal care utilization committee. Animals were individually housed and fed a basal diet of Lab Diet Certified Rodent Diet #5002, PMI Nutrition International, Inc. Food and water was available ad libitum except during fasting periods, when food was withheld, and during any required restraint periods, when both food and water were withheld. Animal rooms were maintained at (20 ± 2) °C and (50 ± 20)% relative humidity with a 12 h light/dark cycle throughout the study.
For intravenous administration, EK-ECP was dissolved in 70/25/5 (v/v) phosphate-buffered saline (PBS)/propylene glycol/ethanol (pH 5.1 final concentration of 2 mg/mL) and stabilized at room temperature for 24 h. For oral administration, after an amount of EK-ECP appropriate to the final targeted formulation concentrations was weighed and placed in a bottle, a small amount of the vehicle (water for injection) was added and mixed using a vortex mixer and heated to between 60 to 70 °C until homogeneously suspended. Additional amounts of the vehicle were gradually added to yield the targeted EK-ECP concentrations (1, 10, and 100 mg/mL). Dosing occurred within 4 h after preparation completion. The individual constituent doses of dieckol, 8,8′-bieckol, and PFF-A in each dosing formulation were analyzed by RP-HPLC followed by interpolation of the corresponding area% to the calibration curve prepared with known concentrations of isolated standards. The animals were fasted for a minimum of 4 h prior to dosing and through the first 4 h of blood sample collection. Each animal in Group 1 received a single intravenous (IV) dose of the 10 mg/kg EK-ECP. The intravenous doses were administered as a slow bolus injection over 5 min through the femoral vein cannula. The cannula was flushed with approximately 0.3 mL of sterile 0.9% sodium chloride for injection, USP, immediately following dosing. Each animal in Groups 2, 3 and 4 received a single oral (PO) gavage dose of the appropriate test article formulation, as outlined Table 3. Oral gavage dosing formulations were continuously stirred throughout dosing. […]

[1] = PO 1000 mg/kg EK-ECP (Group 4), PFF-A in a single rat
[2] = plasma, PO 1000 mg/kg EK-ECP (Group 4), mean (CV), PFF-A N = 1
[3] = in vivo, PO 100 mg/kg EK-ECP, mean (CV)
[4] = in vivo, PO 1000 mg/kg EK-ECP, mean (CV)
[5] = plasma, PO 100 mg/kg EK-ECP, mean (CV)
[6] = plasma, PO 1000 mg/kg EK-ECP, mean (CV)

For Oc1cc(O)cc(Oc2c(O)cc(O)c3c2Oc2c(O)cc4oc5c(Oc6cc(O)cc(O)c6)c(O)cc(O)c5c4c2O3)c1 [PFF-A, phlorofucofuroeckol-A], the plasma concentrations (PO 100 mg/kg EK-ECP (Group 3), LLOQ 1 ng/mL, 100 mg/kg) was “below the lower limit of quantitation; also recorded: below the quantifiable limit”, the “plasma concentrations quantifiable up to” value [1] was 1 h and the Cmax [2] was 1.58 ng/mL. The Tmax (plasma, PO 1000 mg/kg EK-ECP) was 30 min.

With Oc1cc(O)cc(Oc2c(O)cc(O)c3c2Oc2c(cc(O)c(-c4c(O)cc5c(c4O)Oc4c(Oc6cc(O)cc(O)c6)c(O)cc(O)c4O5)c2O)O3)c1 [8,8′-bieckol] the “plasma concentrations quantifiable up to” value (PO 100 mg/kg EK-ECP (Group 3)) was 12 h, the Tlast (PO 100 mg/kg EK-ECP) was 8 (8–12) h and the “plasma concentrations quantifiable up to” value [1] was 36 h. The “Effective T1/2” value (PO 1000 mg/kg EK-ECP, mean (CV), ln(2)·MRTlast, 1000 mg/kg) was 4.11 (16) h, the Tlast (PO 1000 mg/kg EK-ECP) was 36 (36–36) h and the “fold increase in AUCTlast for a 1:10-fold increase in dose” value was roughly 84 fold. For the same molecule, the “fold increase in Cmax for a 1:10-fold increase in dose” value was roughly 71 fold, the half-life (in vivo, 100 mg/kg, PO 100 mg/kg EK-ECP, mean (CV), ln(2)·MRTlast, read-out: Effective T1/2 (converted)) was 134 min and the AUC(0-t) (in vivo, 100 mg/kg, PO 100 mg/kg EK-ECP, mean (CV), read-out: AUC(0–24h)) was 41.5 ng·h/mL. For the same molecule, the AUC(0-t) (in vivo, 100 mg/kg, PO 100 mg/kg EK-ECP, mean (CV), read-out: AUCTlast) was 37.7 ng·h/mL, the half-life (in vivo, 100 mg/kg, PO 100 mg/kg EK-ECP, mean (CV), read-out: T1/2 (terminal half-life) (converted)) was 177 min and the half-life (in vivo, 1000 mg/kg, PO 1000 mg/kg EK-ECP, mean (CV), ln(2)·MRTlast, read-out: Effective T1/2 (converted)) was 265 min. For the same molecule, the AUC(0-t) (in vivo, 1000 mg/kg, PO 1000 mg/kg EK-ECP, mean (CV), read-out: AUC(0–24h)) was 3050 ng·h/mL, the AUC(0-t) (in vivo, 1000 mg/kg, PO 1000 mg/kg EK-ECP, mean (CV), read-out: AUCTlast) was 3170 ng·h/mL and the half-life (in vivo, 1000 mg/kg, PO 1000 mg/kg EK-ECP, mean (CV), read-out: T1/2 (terminal half-life) (converted)) was 398 min. The bioavailability (in vivo) was 0.069 to 0.5%, the Cmax (in vivo, PO 100 mg/kg EK-ECP (Group 3), mean (CV)) was 11.2 ng/mL and the AUC(0-inf) [3] was 44 ng·h/mL. It also gave an MRT last [3] of 3.23 h, a Vd/F [3] of 1060 L/kg and a Tmax (in vivo, PO 100 mg/kg EK-ECP) of 15 to 240 min. For the same molecule, the Cmax (in vivo, PO 1000 mg/kg EK-ECP (Group 4), mean (CV), PFF-A N = 1) was 795 ng/mL, the AUC(0-inf) [4] was 3210 ng·h/mL and the MRT last [4] was 5.93 h. The Vd/F [4] was 342 L/kg and the Tmax (in vivo, PO 1000 mg/kg EK-ECP) was 30 min.

For Oc1cc(O)cc(Oc2c(O)cc(O)c3c2Oc2c(O)cc(Oc4c(O)cc(Oc5c(O)cc(O)c6c5Oc5c(O)cc(O)cc5O6)cc4O)cc2O3)c1 [dieckol], the “plasma concentrations quantifiable up to” value (PO 100 mg/kg EK-ECP (Group 3)) was 8 h, the Tlast (PO 100 mg/kg EK-ECP) was 8 (6–8) h and the “plasma concentrations quantifiable up to” value [1] was 36 h. The Tlast (PO 1000 mg/kg EK-ECP) was 36 (36–36) h, the “fold increase in AUCTlast for a 1:10-fold increase in dose” value was roughly 49 fold and the “fold increase in Cmax for a 1:10-fold increase in dose” value was roughly 41 fold. The half-life (plasma, 100 mg/kg, PO 100 mg/kg EK-ECP, mean (CV), ln(2)·MRTlast, read-out: Effective T1/2 (converted)) was 142 min, the AUC(0-t) (plasma, 100 mg/kg, PO 100 mg/kg EK-ECP, mean (CV), read-out: AUC(0–24h)) was 27.2 ng·h/mL and the AUC(0-t) (plasma, 100 mg/kg, PO 100 mg/kg EK-ECP, mean (CV), read-out: AUCTlast) was 24.3 ng·h/mL. The half-life (plasma, 100 mg/kg, PO 100 mg/kg EK-ECP, mean (CV), read-out: T1/2 (terminal half-life) (converted)) was 166 min, the half-life (plasma, 1000 mg/kg, PO 1000 mg/kg EK-ECP, mean (CV), ln(2)·MRTlast, read-out: Effective T1/2 (converted)) was 319 min and the AUC(0-t) (plasma, 1000 mg/kg, PO 1000 mg/kg EK-ECP, mean (CV), read-out: AUC(0–24h)) was 1130 ng·h/mL. For the same molecule, the AUC(0-t) (plasma, 1000 mg/kg, PO 1000 mg/kg EK-ECP, mean (CV), read-out: AUCTlast) was 1200 ng·h/mL, the half-life (plasma, 1000 mg/kg, PO 1000 mg/kg EK-ECP, mean (CV), read-out: T1/2 (terminal half-life) (converted)) was 397 min and the bioavailability (plasma) was 0.06 to 0.23%. It also gave a Cmax (plasma, PO 100 mg/kg EK-ECP (Group 3), mean (CV)) of 6.67 ng/mL, an AUC(0-inf) [5] of 31.4 ng·h/mL and an MRT last [5] of 3.4 h. For the same molecule, the Vd/F [5] was 1160 L/kg, the Tmax (plasma, PO 100 mg/kg EK-ECP) was 30 to 240 min and the Cmax [2] was 274 ng/mL. It also gave an AUC(0-inf) [6] of 1230 ng·h/mL, an MRT last [6] of 7.67 h and a Vd/F [6] of 768 L/kg. The Tmax (plasma, PO 1000 mg/kg EK-ECP) was 30 min.
